# Where two headings read alike, the source gives them in different places.
# Assays:
# [1] = tested on: MOLM-13 cell; assay: MTS cell viability assay; assay type: cell-based; conditions: Homo sapiens, MOLM-13, 72 h, table of representative values
# Source text: The leukemias cell lines MOLM-13, MV4:11, RSV4:11, MOLT-4, U937, and K562 were purchased from American Type Culture Collection (ATCC, Manassas, Va., USA). The non-leukemias cell lines HCC827, H1975, NCIH460, A431, Huh7, SF268, MCF-7, HCT-116, and normal human fetal fibroblast cell line Detriot 551 were purchased from American Type Culture Collection (ATCC, Manassas, Va., USA). All leukemias cell lines and HCC827, H1975, NCIH460, A431 were maintained in RPMI 1640 medium supplemented with 10% fetal bovine serum (FBS), 10 U/ml penicillin, and 10 µg/ml streptomycin at 37° C. and 5% CO2. The cell lines Huh7, SF268, MCF-7, and Detroit 551 were cultured in DMEM medium supplemented with 10% FBS, 0.01% nonessential amino acids, 10 U/ml penicillin, and 10 µg/ml streptomycin. HCT-116 were cultured in McCoy's 5A medium supplemented with 10% FBS, 0.01% nonessential amino acids, 10 U/ml penicillin, and 10 µg/ml streptomycin. To determine cell viability after drug treatment, assays were performed by seeding 10,000 cells (leukemias cell lines) or 2,500 cells (non-leukemias cell lines) per well in a 96-well culture plate. After 16 h, cells were then treated with vehicle or various concentrations of compound in medium for 72 h. Viable cells were quantitated using the MTS method (Promega, Madison, Wis., USA) according to the manufacturer's recommended protocol. The results were determined by measuring the absorbance at 490 nm using a plate reader (Victor2; PerkinElmer, Shelton, Conn., USA).
# [2] = biological target: T1, Aurora A (Homo sapiens, UniProt O14965); assay: Aurora kinase A Kinase-Glo kinase assay; assay type: biochemical
# T1 construct: GST-Aurora A (residues S123-S401); GST (N); made in house; host or cells: Sf9 insect cells
# T1 sequence (O14965 123-401): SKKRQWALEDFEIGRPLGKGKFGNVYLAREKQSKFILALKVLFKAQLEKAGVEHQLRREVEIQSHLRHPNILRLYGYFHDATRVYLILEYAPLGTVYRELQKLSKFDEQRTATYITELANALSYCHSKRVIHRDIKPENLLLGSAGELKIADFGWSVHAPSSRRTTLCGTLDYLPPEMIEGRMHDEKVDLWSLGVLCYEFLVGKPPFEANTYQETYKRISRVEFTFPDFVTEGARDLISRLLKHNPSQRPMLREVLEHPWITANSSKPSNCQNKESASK
# Protocol: The recombinant GST-Aurora A (residues S123-S401) containing kinase domain were expressed in Sf9 insect cells. The kinase assay were carried out in 96-well plates with tested compound in a final volume of 50 μl reaction at 37° C. for 90 minutes with following components: 50 mM Tris-HCl pH 7.4, 10 mM NaCl, 10 mM MgCl2, 0.01% BSA, 5 μM ATP, 1 mM DTT and 15 μM tetra(LRRASLG) peptide, and 150 ng recombinant Aurora A. Following incubation, 50 μl Kinase-Glo Plus Reagent (Promega, Madison, Wis., USA) was added to each well and the mixture was incubated at 25° C. for 20 min. A 70-μL aliquot of each reaction mixture was transferred to a black microtiter plate and the luminescence was measured on Wallac Vector 1420 multilabel counter (PerkinElmer, Shelton, Conn., USA).
# [3] = biological target: T2, VEGFR1 (Homo sapiens, UniProt P17948); assay: VEGFR1 Kinase-Glo kinase assay; assay type: biochemical
# T2 construct: GST-VEGFR1 (residues R781-I1338); GST (N); made in house; host or cells: Sf9 insect cells
# T2 sequence (P17948 781-1338): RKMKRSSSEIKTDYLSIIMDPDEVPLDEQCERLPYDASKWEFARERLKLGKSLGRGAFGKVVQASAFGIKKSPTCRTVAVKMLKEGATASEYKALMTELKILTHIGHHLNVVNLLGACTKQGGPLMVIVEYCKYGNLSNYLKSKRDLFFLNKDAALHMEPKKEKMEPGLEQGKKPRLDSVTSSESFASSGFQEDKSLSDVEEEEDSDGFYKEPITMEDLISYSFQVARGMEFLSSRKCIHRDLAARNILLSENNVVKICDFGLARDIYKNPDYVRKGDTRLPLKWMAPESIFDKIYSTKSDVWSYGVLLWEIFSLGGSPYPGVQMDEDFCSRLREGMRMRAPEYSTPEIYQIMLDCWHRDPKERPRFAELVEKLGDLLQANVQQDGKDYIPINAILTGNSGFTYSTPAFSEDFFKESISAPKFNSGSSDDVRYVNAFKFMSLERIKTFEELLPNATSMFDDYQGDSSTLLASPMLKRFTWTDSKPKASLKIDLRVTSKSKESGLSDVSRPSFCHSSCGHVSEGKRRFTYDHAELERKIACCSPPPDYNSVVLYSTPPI
# Protocol: (§1) The recombinant GST-VEGFR1 (residues R781-I1338) or GST-VEGFR2 (residues V789-V1356) containing kinase domain were expressed in Sf9 insect cells. The kinase assay were carried out in 96-well plates with tested compound in a final volume of 50 μl reaction at 30° C. for 120 minutes with following components: 25 mM HEPES pH 7.4, 10 mM MgCl2, 4 mM MnCl2, 0.5 mM Na3VO4, 2 mM DTT, 0.02% Triton X100, 0.01% BSA, 1 μM ATP, 2 μM polyGlu4:Tyr peptide, 50˜100 ng recombinant VEGFR1 or VEGFR2. Following incubation, 50 μl Kinase-Glo Plus Reagent (Promega, Madison, Wis., USA) was added to each well and the mixture was incubated at 25° C. for 20 min. A 70-μL aliquot of each reaction mixture was transferred to a black microtiter plate and the luminescence was measured on Wallac Vector 1420 multilabel counter (PerkinElmer, Shelton, Conn., USA).
# [4] = biological target: T3, wt-FLT3 (Homo sapiens, UniProt P36888); assay: FLT3 WT Kinase-Glo assay; assay type: biochemical; conditions: table of representative values; read-out: IC50 (nM) wt-FLT3
# T3 construct: FLT3 kinase catalytic domain (residues Y567˜S993); made in house; host or cells: Sf9 insect cells (baculovirus, pBac-PAK8-GST-FLT3-KD plasmid)
# T3 sequence (P36888 567-993): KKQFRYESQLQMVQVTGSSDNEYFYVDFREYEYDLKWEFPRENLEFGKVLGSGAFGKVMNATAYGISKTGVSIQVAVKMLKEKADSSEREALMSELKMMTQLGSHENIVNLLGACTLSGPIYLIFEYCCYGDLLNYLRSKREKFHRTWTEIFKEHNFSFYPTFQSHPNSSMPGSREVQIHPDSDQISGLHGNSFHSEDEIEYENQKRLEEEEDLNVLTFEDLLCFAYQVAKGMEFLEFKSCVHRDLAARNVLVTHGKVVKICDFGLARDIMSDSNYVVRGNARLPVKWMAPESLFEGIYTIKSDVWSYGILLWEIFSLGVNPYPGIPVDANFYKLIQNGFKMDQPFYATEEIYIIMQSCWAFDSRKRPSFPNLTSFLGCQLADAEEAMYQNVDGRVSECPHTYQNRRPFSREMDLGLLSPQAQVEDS
# Protocol: GST-FLT3-KD^WT containing the FLT3 kinase catalytic domain (residues Y567˜S993) were expressed in Sf9 insect cells transfected the baculovirus containing pBac-PAK8-GST-FLT3-KD plasmid. […] Following incubation, 50 μl Kinase-Glo Plus Reagent (Promega, Madison, Wis., USA) was added to each well and the mixture was incubated at 25° C. for 20 min. A 70-μL aliquot of each reaction mixture was transferred to a black microtiter plate and the luminescence was measured on Wallac Vector 1420 multilabel counter (PerkinElmer, Shelton, Conn., USA).
# [5] = biological target: T4, VEGFR2 (Homo sapiens, UniProt P35968); assay: VEGFR2 Kinase-Glo kinase assay; assay type: biochemical
# T4 construct: GST-VEGFR2 (residues V789-V1356); GST (N); made in house; host or cells: Sf9 insect cells
# Protocol: as §1
# [6] = Aurora A assay, 5 μM ATP, bound in nM, read-out: IC50
# [7] = Aurora A assay, 5 μM ATP, bound in μM, read-out: IC50
# [8] = table of representative values, read-out: IC50 (nM) Aurora A
# [9] = VEGFR1 assay, 1 μM ATP, bound in nM, read-out: IC50
# [10] = VEGFR1 assay, 1 μM ATP, bound in μM, read-out: IC50
# [11] = table of representative values, read-out: IC50 (nM) VEGFR1
# [12] = VEGFR2 assay, 1 μM ATP, bound in μM, read-out: IC50
# [13] = VEGFR2 assay, 1 μM ATP, ranges in nM, read-out: IC50
# [14] = table of representative values, read-out: IC50 (nM) VEGFR2
# T4 sequence (P35968 789-1356): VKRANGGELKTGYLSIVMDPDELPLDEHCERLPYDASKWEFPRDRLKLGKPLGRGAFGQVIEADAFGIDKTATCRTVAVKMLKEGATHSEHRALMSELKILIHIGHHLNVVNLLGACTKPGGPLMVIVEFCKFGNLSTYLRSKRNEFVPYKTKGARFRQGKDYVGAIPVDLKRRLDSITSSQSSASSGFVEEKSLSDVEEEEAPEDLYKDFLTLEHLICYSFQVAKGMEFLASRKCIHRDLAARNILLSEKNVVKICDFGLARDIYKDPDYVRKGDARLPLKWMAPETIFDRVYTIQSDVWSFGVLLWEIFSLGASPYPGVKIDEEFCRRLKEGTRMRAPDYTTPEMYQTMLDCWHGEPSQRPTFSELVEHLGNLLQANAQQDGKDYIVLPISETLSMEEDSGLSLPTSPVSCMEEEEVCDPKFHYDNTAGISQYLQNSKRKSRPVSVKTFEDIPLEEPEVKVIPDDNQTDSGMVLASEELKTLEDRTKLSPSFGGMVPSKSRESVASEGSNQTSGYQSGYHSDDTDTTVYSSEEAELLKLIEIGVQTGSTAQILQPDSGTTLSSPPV
Structure (SMILES),GI50 [1],"IC50 [2, 6]","IC50 [2, 7]","IC50 [2, 8]","IC50 [3, 9]","IC50 [3, 10]","IC50 [3, 11]",IC50 [4],"IC50 [5, 12]","IC50 [5, 13]","IC50 [5, 14]"
"Cc1cc(-c2cc(NC(=O)c3ccc(OCCN4CCOCC4)cc3)[nH]n2)ccc1NC(=O)Nc1cc(C2CC2)on1 [Compound 46c, N1-3-[4-([(5-cyclopropyl-3-isoxazolyl)amino]carbonylamino)-3-methylphenyl]-1H-5-pyrazolyl-4-(2-morpholinoethoxy)benzamide]",2 nM,< 200 nM,< 1000 nM,41 nM,< 100 nM,< 1000 nM,53 nM,38 nM,< 1 µM,0.001 to 0.055 µM,0.037 µM
"O=C(NCc1ccc(-c2cc(NC(=O)c3ccc(OCCN4CCOCC4)cc3)[nH]n2)cc1)Nc1cc(C2CC2)on1 [Compound 59d, N1-(3-4-[([(5-cyclopropyl-3-isoxazolyl)amino]carbonylamino)methyl]phenyl-1H-5-pyrazolyl)-4-(2-morpholinoethoxy)benzamide]",6 nM,,,,,< 1000 nM,342 nM,21 nM,< 1 µM,0.001 to 0.055 µM,0.045 µM
"CCc1cc(NC(=O)Nc2ccc(-c3cc(NC(=O)c4ccc(OCCN5CCOCC5)cc4)[nH]n3)cc2C)no1 [Compound 46b, N1-3-[4-([(5-ethyl-3-isoxazolyl)amino]carbonylamino)-3-methylphenyl]-1H-5-pyrazolyl-4-(2-morpholinoethoxy)benzamide]",1 nM,< 200 nM,< 1000 nM,22 nM,,< 1000 nM,290 nM,27 nM,< 1 µM,,0.151 µM
"CN1CCN(Cc2ccc(C(=O)Nc3cc(-c4ccc(CNC(=O)Nc5cc(C6CC6)on5)cc4)n[nH]3)cc2)CC1 [Compound 62d, N1-(3-4-[([(5-cyclopropyl-3-isoxazolyl)amino]carbonylamino)methyl]phenyl-1H-5-pyrazolyl)-4-[(4-methylpiperazino)methyl]benzamide]",3 nM,,,,,< 1000 nM,180 nM,38 nM,< 1 µM,0.001 to 0.055 µM,0.023 µM
"CCc1cc(NC(=O)NCc2ccc(-c3cc(NC(=O)c4ccc(CN5CCN(C)CC5)cc4)[nH]n3)cc2)no1 [Compound 62b, N1-(3-4-[([(5-ethyl-3-isoxazolyl)amino]carbonylamino)methyl]phenyl-1H-5-pyrazolyl)-4-[(4-methylpiperazino)methyl]benzamide]",2 nM,,,> 1000 nM,< 100 nM,< 1000 nM,29 nM,26 nM,< 1 µM,0.001 to 0.055 µM,0.037 µM
